Laboratory results published in US20260217679A1, “CANCER TREATING COMPOUNDS” (UNIVERSITY OF BRADFORD, priority 2023, published 2026).
Like-named read-outs stand apart in the source and are kept apart here.

Tests used:
[1] = system: JR1; test: Anti-proliferative activity in RMS cell lines, MTT assay; assay type: cell-based; conditions: read-out: IC50 JR1
Procedure: (§1) Briefly, […] of a cell suspension (~2000 cells/well) was added in fresh, sterile 96-well plates. Afterwards, rhabdomyosarcoma (RMS) cell lines (RH30, RH41 and JR1) were incubated for 24 h at 37° C., 5% CO2 to allow cellular attachment on the surface of the wells. On the next day after cell seeding, cells were treated with the duocarmycin compounds. 20 μL of drug dilution was added into the wells, making up a final volume of 200 μL/well. In untreated control wells, 20 μL of fresh medium was added instead (0.1% DMSO). Duocarmycin stock concentrations were prepared in DMSO; the concentration of the latter in the wells containing the medium and cells never exceeded 0.1% (v/v). The concentrations tested ranged from 100 μM to 1 pM depending on the IC50 of each compound from preliminary screening. Each experiment was tested at least in triplicate, and antiproliferative activity was determined after 96 hours using a standard MTT (3-(4,5-dimethylthiazol-2-yl)-2,5-diphenyltetrazolium bromide) assay.

[2] = system: RH30; test: as above; assay type: cell-based; conditions: read-out: IC50 RH30
Procedure: as §1

[3] = system: RH41; test: as above; assay type: cell-based; conditions: Homo sapiens, read-out: IC50 RH41
Procedure: as §1

[4] = system: H2AX phosphorylation in MDA-MB-231; test: H2AX phosphorylation Western Blot as marker of double-stranded DNA damage; assay type: cell-based, human; conditions: MDA-MB-231, Western Blot, FIG. 1
Description: The mechanism of action of the naturally occurring duocarmycins is well documented and involves spirocyclization of the seco-duocamycins including those derived from the CBI and other aryl-ring-fused subunits of the duocarmycin alkylating subunit.

[5] = system: MDA-MB-231; test: Growth inhibition of MDA-MB-231 (triple-negative) breast cancer cell line; assay type: cell-based; conditions: Homo sapiens
Procedure: (§2) The compounds of the present invention were evaluated for their ability to inhibit the growth of MDA-MB-231 (triple-negative) and MCF-7 (oestrogen receptor positive) breast cancer cell lines. A positive control (PC), seco-CBI-MI, with structure shown below, was used as a baseline for comparison of the efficacy of the compounds of the present invention.

[6] = system: MCF-7; test: Growth inhibition of MCF-7 (oestrogen receptor positive) breast cancer cell line; assay type: cell-based; conditions: Homo sapiens
Procedure: as §2

[7] = MDA-MB-231, read-out: IC50 MDA MB 231
[8] = MDA-MB-231 growth inhibition, read-out: IC50 MDA MB 231
[9] = MCF7, MCF-7 growth inhibition, read-out: IC50 MCF7

SMILES | IC50 ([1]; JR1, 96 hours, MTT) [nM] | IC50 ([2]; RH30, 96 hours, MTT) [nM] | IC50 ([3]; RH41, 96 hours, MTT) [nM] | DNA damage measured using H2AX phosphorylation [4] | IC50 [5, 7] [nM] | IC50 ([6]; MCF7, read-out: IC50 MCF7) [nM] | IC50 ([1]; 96 h) [nM] | IC50 ([2]; Rh30, 96 h) [nM] | IC50 ([3]; Rh41, 96 h) [nM] | IC50 [5, 8] [nM] | IC50 [6, 9] [nM]
COc1ccc2[nH]c(C(=O)N3CC(CCl)c4c3cc(O)c3ccccc43)cc2c1 (centres unmarked) [DP31] | 0.243 ± 0.308 | 0.0861 ± 0.0248 | 0.0368 ± 0.0316 | generated DNA damage |  |  |  |  |  |  | 
COc1ccc2[nH]c(C(=O)N3CC(CCl)c4c3cc(-c3ccc(O)cc3)c3ccccc43)cc2c1 (centres unmarked) [DP36] |  |  |  | generated DNA damage | 23.3 ± 9.9 | 20 ± 27.1 | 7.28 ± 6.1 | 6.69 ± 4.33 | 24.9 ± 34 |  | 
O=C(c1cc2cc(O)ccc2[nH]1)N1CC(CCl)c2c1cc(OCc1ccccc1)c1ccccc21 (centres unmarked) [DP40] | 1400 ± 1240 | 227 ± 307 | 530 ± 514 |  |  |  |  |  |  | 2200 ± 200 | 1300 ± 100
C#CCCC(=O)Oc1ccc2[nH]c(C(=O)N3CC(CCl)c4c3cc(OCc3ccccc3)c3ccccc43)cc2c1 (centres unmarked) [DP42] |  |  |  |  | 3200 ± 2900 |  | 278 ± 156 | 81.5 ± 77.3 | 378 ± 209 |  | 
COc1ccc2[nH]c(C(=O)N3CC(CCl)c4c3cc(-c3ccc(CO)cc3)c3ccccc43)cc2c1 (centres unmarked) [DP44] |  |  |  |  | 5400 ± 5800 | 4800 ± 4800 | 4860 ± 4780 | 2190 ± 3100 | 2800 ± 1960 |  | 
COc1ccc2[nH]c(C(=O)N3CC(CCl)c4c3cc(-c3ccc(C)cc3)c3ccccc43)cc2c1 (centres unmarked) [DP45] |  |  |  | generated DNA damage | > 10000 | > 10000 | 32900 ± 29100 | 56700 ± 37600 | 68000 ± 50700 |  | 
COc1ccc2[nH]c(C(=O)N3CC(CCl)c4c3cc(-c3cccc(O)c3)c3ccccc43)cc2c1 (centres unmarked) [DP47] |  |  |  | generated DNA damage | 206 ± 79.6 | 104 ± 79.8 | 59.2 ± 27.2 | 60.3 ± 49.1 | 19.2 ± 20.9 |  | 
COc1ccc2[nH]c(C(=O)N3CC(CCl)c4c3cc(-c3ccc(N)cc3)c3ccccc43)cc2c1 (centres unmarked) [DP48] |  |  |  |  | 911 | 713 | 5170 ± 4280 | 355 ± 352 | 581 ± 648 |  | 
C#CCCCC(=O)Oc1ccc2[nH]c(C(=O)N3CC(CCl)c4c3cc(OCc3ccccc3)c3ccccc43)cc2c1 (centres unmarked) [DP51] |  |  |  |  | > 10000 |  | 18500 ± 9640 | 1220 ± 830 | 2510 ± 1160 |  | 
COc1ccc(Nc2cc3c(c4ccccc24)C(CCl)CN3C(=O)c2cc3cc(OC)ccc3[nH]2)cc1 (centres unmarked) [DP59] | 1.33 ± 1.93 | 0.376 ± 0.157 | 0.298 ± 0.154 | generated DNA damage |  |  |  |  |  | 7.6 ± 2.1 | 2.5 ± 0.7
CCCCNc1cc2c(c3ccccc13)C(CCl)CN2C(=O)c1cc2cc(OC)ccc2[nH]1 (centres unmarked) [DP63] | 0.217 ± 0.287 | 0.101 ± 0.048 | 0.0204 ± 0.0114 |  |  |  |  |  |  | 1.7 ± 1.4 | 0.8 ± 0.3
COC(=O)[C@H](CC(C)C)Nc1cc2c(c3ccccc13)C(CCl)CN2C(=O)c1cc2cc(OC)ccc2[nH]1 (some centres unmarked) [DP65] | 0.323 ± 0.291 | 0.0763 ± 0.129 | 0.00551 ± 0.00229 | generated DNA damage |  |  |  |  |  | 28.3 ± 29 | 8.1 ± 7
COc1ccc2[nH]c(C(=O)N3CC(CCl)c4c3cc(Nc3ccc(C(F)(F)F)cc3)c3ccccc43)cc2c1 (centres unmarked) [DP70] | 44.6 ± 56.1 | 18.9 ± 18.9 | 31.2 ± 28.8 | generated DNA damage |  |  |  |  |  | 129 ± 18.9 | 76.7 ± 29
COc1ccc2[nH]c(C(=O)N3CC(CCl)c4c3ccc3ccc(OCc5ccccc5)cc43)cc2c1 (centres unmarked) [DP77] |  |  |  |  | > 10000 | > 10000 | 22100 ± 19600 | 3080 ± 2570 | 22500 ± 17400 |  | 
COc1ccc2[nH]c(C(=O)N3CC(CCl)c4c3ccc3ccc(O)cc43)cc2c1 (centres unmarked) [DP78] |  |  |  |  | 1080 ± 200 | 1020 ± 200 | 3510 ± 1840 | 268 ± 130 | 500000 ± 416000 |  | 
COc1ccc(-c2cc3c(c4ccccc24)C(CCl)CN3C(=O)c2cc3cc(OC)ccc3[nH]2)cc1 (centres unmarked) [ICT11038, (1-(Chloromethyl)-5-(4-methoxyphenyl)-1H-benzo[e]indol-3(2H)-yl)(5-methoxy-1H-indol-2-yl)methanone] |  |  |  |  |  |  | 801000 ± 207000 | 35.8 ± 16.4 | 121000 ± 95300 |  | 
COCc1ccc(-c2cc3c(c4ccccc24)C(CCl)CN3C(=O)c2cc3cc(OC)ccc3[nH]2)cc1 (centres unmarked) [ICT11039, (1-(Chloromethyl)-5-(4-(methoxymethyl)phenyl)-1H-benzo[e]indol-3(2H)-yl)(5-methoxy-1H-indol-2-yl)methanone] |  |  |  |  |  |  | 10100 ± 5780 | 12800 ± 8460 | 1140 ± 500 |  | 
COc1ccc2[nH]c(C(=O)N3CC(CCl)c4c3cc(-c3ccncc3)c3ccccc43)cc2c1 (centres unmarked) [ICT11040, (1-(Chloromethyl)-5-(pyridin-4-yl)-1H-benzo[e]indol-3(2H)-yl)(5-methoxy-1H-indol-2-yl)methanone] |  |  |  |  |  |  | 861 ± 329 | 494 ± 267 | 576 ± 405 |  | 
COc1ccc2[nH]c(C(=O)N3CC(CCl)c4c3cc(-c3cccnc3)c3ccccc43)cc2c1 (centres unmarked) [ICT11041, (1-(Chloromethyl)-5-(pyridin-3-yl)-1H-benzo[e]indol-3(2H)-yl)(5-methoxy-1H-indol-2-yl)methanone] |  |  |  |  |  |  | 12200 ± 4580 | 8040 ± 1030 | 6000 ± 5120 |  | 
COc1ccc2[nH]c(C(=O)N3CC(CCl)c4c3cc(-c3ccccc3)c3ccccc43)cc2c1 (centres unmarked) [ICT11043, (1-(Chloromethyl)-5-phenyl-1H-benzo[e]indol-3(2H)-yl)(5-methoxy-1H-indol-2-yl)methanone] |  |  |  |  |  |  | 138000 ± 75800 | 56000 ± 17000 | 30200 ± 23100 |  | 
COc1ccc2[nH]c(C(=O)N3CC(CCl)c4c3cc(-c3ccccc3O)c3ccccc43)cc2c1 (centres unmarked) [ICT11044, (1-(Chloromethyl)-5-(2-hydroxyphenyl)-1H-benzo[e]indol-3(2H)-yl)(5-methoxy-1H-indol-2-yl)methanone] |  |  |  |  |  |  | 422 ± 177 | 124 ± 134 | 291 ± 204 |  | 
COc1ccc2[nH]c(C(=O)N3CC(CCl)c4c3cc(O)c3ccccc43)cc2c1 (centres unmarked) [PC, seco-CBI-MI, reference compound] |  |  |  |  |  |  |  |  |  | 0.62 ± 0.5 | 0.69 ± 0.3
